Experimental data published in patent publication US8501778B2, “Aralkyl piperidine derivatives and their uses as antalgic or ataractic agent” (priority 2008, dated 2013).
Like-named read-outs stand apart in the source and are kept apart here.

How the values were obtained:
Kunming mice [1] = assay: Acetic Acid Twisting Method in mice (antalgic effect); type: in vivo; conditions: Mus musculus, sc
Kunming mice [2] = assay: Hot Plate Method in mice (antalgic effect); type: in vivo; conditions: Mus musculus, sc, subcutaneous injection at neck, 1 hour after dosing, hot plate 55.5° C., read-out: Increasing rate of pain threshold (%)
mice [3] = conditions: mouse, in vivo
[4] = test system: S. typhimurium TA97, TA98, TA100 and TA102; assay: Bacterial Reverse-Mutation Assay (Ames TS); type: cell-based
From the text: Strains: S. typhimurium TA97, TA98, TA100 and TA102.
Results: The assay included two parts: without S9 and with S9.

mice [5] = conditions: daily for eight days; III-15 60 mg/kg oral gavage, Morphine 10 mg/kg PO; Hot Plate 15 minutes after each administration
mice [6] = assay: Jump test in mice (physical dependence, naloxone precipitated); conditions: III-15 seven times in two days, 20-120 mg/kg PO, naloxone 2 mg/kg i.v. three hours after last dosing
[7] = Animal model studies, summary (oral absorption, therapeutic index); conditions: summary statement
mice [8] = assay: Conditioned Place Preference test in mice (psychological dependence); conditions: III-15 60 mg/kg oral gavage each day for six consecutive days
[9] = read-out: twisting response inhibiting rate (%)

COc1ccc(CN2CCC(O)(CC(=O)c3ccccc3)CC2)cc1.Cl [III-15, N-p-methoxybenzyl-4-benzoylmethyl-4-piperidinol hydrochloride]
inhibition in vivo at 20 mg/kg (Kunming mice [1]; read-out: antalgic): 96% | inhibition in vivo at 10 mg/kg (Kunming mice [1]; [9]): 55.4% | inhibition in vivo at 20 mg/kg (Kunming mice [1]; [9]): 94.4% | inhibition in vivo at 40 mg/kg (Kunming mice [1]; [9]): 100% | change in vivo at 10 mg/kg (Kunming mice [2]; 10 mg/kg): 77.7% | change in vivo at 20 mg/kg (Kunming mice [2]; 20 mg/kg): 118% | change in vivo at 40 mg/kg (Kunming mice [2]; 40 mg/kg): 260% | reversal of the antalgic effect by naloxone (mice [3]): does not reversed by naloxone | Ames test result (revertants) ([4]; TA97, TA98, TA100, TA102, without S9 and with S9, all tested doses): negative | inhibitory effect on bacterial growth ([4]; without S9 TA98 5000 μg/plate and with S9 TA97 5000 μg/plate, no inhibition at all other doses and strains): inhibitory effects on bacterial for the growth were seen | change of pain threshold / antalgic effect on consecutive administration (drug resistance) (mice [5]): does not show weakening | jumping behavior after naloxone (physical dependence) (mice [6]): no jumping behavior is observed | absorption after oral administration [7]: good absorption after oral administration | Conditioned Place Preference (psychological dependence) (mice [8]): do not show Conditioned Place Preference
